In the assay the target is Polyadenylate-binding protein 1 (Homo sapiens, UniProt P11940). The assay is described as follows: PABP1 MLLE–PAM2 interaction inhibitors, dose response, miRNA deadenylation inhibitor project, biochemical, fluorescence polarization, Cy5-PAM2 peptide, secondary (AID 602260). On the technique in general: Fluorescence polarisation rises when a labelled molecule tumbles more slowly, as on binding a larger partner.

Usually IC50 stands for the concentration that gives 50% inhibition. A low value points to greater potency in that assay.

Chain of Polyadenylate-binding protein 1 (P11940 whole entry): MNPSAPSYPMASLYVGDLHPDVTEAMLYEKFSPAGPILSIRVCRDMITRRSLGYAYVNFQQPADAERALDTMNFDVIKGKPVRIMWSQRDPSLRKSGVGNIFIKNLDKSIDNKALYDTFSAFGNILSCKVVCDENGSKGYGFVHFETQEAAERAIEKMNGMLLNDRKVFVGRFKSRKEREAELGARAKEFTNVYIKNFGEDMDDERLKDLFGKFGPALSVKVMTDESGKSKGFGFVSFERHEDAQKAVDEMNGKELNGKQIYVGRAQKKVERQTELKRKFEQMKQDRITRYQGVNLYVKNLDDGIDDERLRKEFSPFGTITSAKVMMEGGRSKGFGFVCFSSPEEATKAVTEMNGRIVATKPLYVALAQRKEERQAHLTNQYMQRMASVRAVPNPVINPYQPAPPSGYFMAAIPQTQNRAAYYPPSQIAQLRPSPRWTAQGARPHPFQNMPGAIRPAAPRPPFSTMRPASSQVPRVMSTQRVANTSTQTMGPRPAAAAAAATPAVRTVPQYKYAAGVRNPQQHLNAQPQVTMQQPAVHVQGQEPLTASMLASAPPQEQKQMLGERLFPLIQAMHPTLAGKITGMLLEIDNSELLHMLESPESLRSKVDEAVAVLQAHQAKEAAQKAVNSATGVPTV

In turn, `O=C(Cc1sc(=O)n(-c2ccccc2)c1O)Nc1ccccc1` [2-(2,4-diketo-3-phenyl-thiazolidin-5-yl)-N-phenyl-acetamide] showed a half-inhibitory concentration (IC50) greater than 66 µM.
`Cc1cc(C(F)(F)F)nc(SCC(=O)Nc2nc(O)c(C)s2)n1` [N-(5-methyl-4-oxidanylidene-1,3-thiazol-2-yl)-2-[4-methyl-6-(trifluoromethyl)pyrimidin-2-yl]sulfanyl-ethanamide] showed a concentration for half-maximal inhibition (IC50) greater than 66 µM.
With `N#CC1C(=N)C2=C(N3CCCCC3)CCCC2C1(C#N)C#N` (stereo not drawn) [3-Amino-4-piperidin-1-yl-5,6,7,7a-tetrahydro-indene-1,1,2-tricarbonitrile], the concentration for half-maximal inhibition (IC50) is greater than 66 µM.
In the case of `O=C(O)CSc1cc(O)n(-c2ccc(Cl)c(Cl)c2)c1O` it was greater than 66 µM; in that of `COc1cc2c(cc1OC)C(c1ccccc1O)N(c1cc(O)n(-c3ccccc3)c1O)CC2` (stereo not drawn), greater than 66 µM; in that of `CCOc1cc(C2C3=C(CCCC3=O)N=C3CCCC(=O)C32)ccc1OCCO` (stereo not drawn) [9-[3-ethoxy-4-(2-hydroxyethoxy)phenyl]-2,3,4,5,6,7,9,10-octahydroacridine-1,8-dione], greater than 66 µM.
In the case of `CCOC(=O)c1ccc(NC(=O)Cc2sc3ncnn3c2O)cc1` it was greater than 66 µM.
In the case of `COc1ccc(C2=Nc3nnnn3C(c3ccc(F)cc3)C2)cc1` (stereo not drawn) [SMR000108015] it was greater than 66 µM; in that of `CC(C)C1=NC(=O)NC2CCCCC12` (stereo not drawn) [SMR000060291], greater than 66 µM.
`Cc1ccc(NC(=O)Cc2sc(=O)n(-c3ccccc3)c2O)cc1`: the IC50 is greater than 66 µM.
Turning to `CCOC(=O)CC1=C(C(=O)OCC)C(c2ccc(C)o2)C(C#N)C(=N)O1` (stereo not drawn) [ethyl 6-amino-5-cyano-2-(2-ethoxy-2-oxoethyl)-4-(5-methyl-2-furyl)-4H-pyran-3-carboxylate], the IC50 is greater than 66 µM.
Regarding `CCSc1sccc1C1C2=C(CCCC2=O)N(c2cccnc2)C(=N)C1C#N` (stereo not drawn) [2-azanyl-4-(2-ethylsulfanylthiophen-3-yl)-5-oxidanylidene-1-pyridin-3-yl-4,6,7,8-tetrahydroquinoline-3-carbonitrile], the IC50 was greater than 66 µM.
As for `COc1ccc(NC(=O)Cc2sc3ncnn3c2O)cc1` [MLS000115464], the figure is greater than 66 µM.

The values above are taken from BindingDB's records for doi:10.7270/Q2V40ST1 (Burnham Center For Chemical Genomics, 2012).
